Test system: HBV
Assay: HBV infection in HepG2-NTCP cells (HBeAg AlphaLISA in supernatants)
Assay type: cell-based
Conditions: Hepatitis B virus, 192 h; HBV infection of HepG2-NTCP cells; HBeAg in supernatants at day 8 post infection; read-out: Cellular EC50
How it was run: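 Readout was day-8 supernatant HBeAg by AlphaLISA, with EC50 set against DMSO controls and binned A<0.1 μM, B 0.1-1 μM, C>1 μM. Compounds were added 2 h before HBV (2000 GE/cell, 4% PEG, 0.5% DMSO) to HepG2-NTCP A3 cells; from day 1 medium held 2.5% DMSO.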

CN1[C@H](C2CCCCC2)CN(c2ccccc2)c2cc(OCC(F)(F)F)c(-c3ccc(NC(=O)OCc4ccccc4)c(C(=O)O)c3)cc2S1(=O)=O [Example 480] and CN1[C@H](C2CCCCC2)CN(c2ccccc2)c2cc(OCc3ccsc3)c(-c3ccc(NC(=O)OCc4ccccc4)c(C(=O)O)c3)cc2S1(=O)=O [Example 481] cannot be ordered by EC50: less than 100 nM for the first, less than 100 nM for the second.

CN1[C@H](C2CCCCC2)CN(c2ccccc2)c2cc(OC3CCC3)c(-c3ccc(NC(=O)OC4CCC4)c(C(=O)O)c3)cc2S1(=O)=O [Example 482] and Cc1cc(-c2cc3c(cc2OC2CCC2)N(c2ccccc2)C[C@@H](C2CCCCC2)N(C)S3(=O)=O)sc1C(=O)O [Example 513, (R)-5-(7-cyclobutoxy-3-cyclohexyl-2-methyl-1,1-dioxido-5-phenyl-2,3,4,5-tetrahydrobenzo[f][1,2,5]thiadiazepin-8-yl)-3-methylthiophene-2-carboxylic acid] cannot be ordered by EC50: less than 100 nM for the first, less than 100 nM for the second.

First: CN1[C@H](C2CCCCC2)CN(c2ccccc2)c2cc(OC3CC(C)(C)C3)c(-c3cc(F)c(C(=O)O)s3)cc2S1(=O)=O [Example 483, (R)-5-(3-cyclohexyl-7-(3,3-dimethylcyclobutoxy)-2-methyl-1,1-dioxido-5-phenyl-2,3,4,5-tetrahydrobenzo[f][1,2,5]thiadiazepin-8-yl)-3-fluorothiophene-2-carboxylic acid]
Second: CN1[C@H](C2CCCCC2)CN(c2ccccc2)c2cc(OC3CC4(CCC4)C3)c(-c3cc(F)c(C(=O)O)s3)cc2S1(=O)=O [Example 484]
The EC50 of the first is lower: less than 100 nM for the first, 100 to 1000 nM for the second. The first is the more potent here.

CCCCCCCOc1cc2c(cc1-c1cc(F)c(C(=O)O)s1)S(=O)(=O)N(C)[C@H](C1CCCCC1)CN2c1ccccc1 [Example 485] and CCCCC[C@H](C)Oc1cc2c(cc1-c1cc(F)c(C(=O)O)s1)S(=O)(=O)N(C)[C@H](C1CCCCC1)CN2c1ccccc1 [Example 490] cannot be ordered by EC50: less than 100 nM for the first, less than 100 nM for the second.

First: CN1[C@H](C2CCCCC2)CN(c2ccccc2)c2cc(OCc3csc(Cl)c3)c(-c3cc(F)c(C(=O)O)s3)cc2S1(=O)=O [Example 487]
Second: Cc1cc(COc2cc3c(cc2-c2cc(F)c(C(=O)O)s2)S(=O)(=O)N(C)[C@H](C2CCCCC2)CN3c2ccccc2)cs1 [Example 493]
The EC50 of the first is lower: less than 100 nM for the first, 100 to 1000 nM for the second.

CN1[C@H](C2CCCCC2)CN(c2ccccc2)c2cc(OCc3cscc3F)c(-c3cc(F)c(C(=O)O)s3)cc2S1(=O)=O [Example 488] and CN1[C@H](C2CCCCC2)CN(c2ccccc2)c2cc(OCc3cscc3Cl)c(-c3cc(F)c(C(=O)O)s3)cc2S1(=O)=O [Example 494] cannot be ordered by EC50: less than 100 nM for the first, less than 100 nM for the second.

CN1[C@H](C2CCCCC2)CN(c2ccccc2)c2cc(OCc3ccsc3Cl)c(-c3cc(F)c(C(=O)O)s3)cc2S1(=O)=O [Example 489] and Cc1csc(COc2cc3c(cc2-c2cc(F)c(C(=O)O)s2)S(=O)(=O)N(C)[C@H](C2CCCCC2)CN3c2ccccc2)n1 [Example 501] cannot be ordered by EC50: less than 100 nM for the first, less than 100 nM for the second.

Compared with CCCCC[C@@H](C)Oc1cc2c(cc1-c1cc(F)c(C(=O)O)s1)S(=O)(=O)N(C)[C@H](C1CCCCC1)CN2c1ccccc1 [Example 491], CC(C)OCCOc1cc2c(cc1-c1cc(F)c(C(=O)O)s1)S(=O)(=O)N(C)[C@H](C1CCCCC1)CN2c1ccccc1 [Example 497] is lower in EC50: 100 to 1000 nM for the first, less than 100 nM for the second.

Cc1cc(COc2cc3c(cc2-c2cc(F)c(C(=O)O)s2)S(=O)(=O)N(C)[C@H](C2CCCCC2)CN3c2ccccc2)c(C)s1 [Example 492] and Cc1nc(COc2cc3c(cc2-c2cc(F)c(C(=O)O)s2)S(=O)(=O)N(C)[C@H](C2CCCCC2)CN3c2ccccc2)sc1C [Example 500] cannot be ordered by EC50: less than 100 nM for the first, less than 100 nM for the second.

CN1[C@H](C2CCCCC2)CN(c2ccccc2)c2cc(OCCOC(C)(C)C)c(-c3cc(F)c(C(=O)O)s3)cc2S1(=O)=O [Example 495] and CN1[C@H](C2CCCCC2)CN(c2ccccc2)c2cc(OCCOC3CC3)c(-c3cc(F)c(C(=O)O)s3)cc2S1(=O)=O [Example 496] cannot be ordered by EC50: less than 100 nM for the first, less than 100 nM for the second.

COCCOCCOc1cc2c(cc1-c1cc(F)c(C(=O)O)s1)S(=O)(=O)N(C)[C@H](C1CCCCC1)CN2c1ccccc1 [Example 498] and COCCOc1cc2c(cc1-c1cc(C)c(C(=O)O)s1)S(=O)(=O)N(C)[C@H](C1CCCCC1)CN2c1ccccc1 [Example 499] cannot be ordered by EC50: less than 100 nM for the first, less than 100 nM for the second.

First: CC(Oc1cc2c(cc1-c1cc(F)c(C(=O)O)s1)S(=O)(=O)N(C)[C@H](C1CCCCC1)CN2c1ccccc1)c1nccs1 (some centres unmarked) [Example 502]
Second: CC(C)Oc1cccc(COc2cc3c(cc2-c2cc(F)c(C(=O)O)s2)S(=O)(=O)N(C)[C@H](C2CCCCC2)CN3c2ccccc2)c1 [Example 506]
The EC50 of the first is higher: 100 to 1000 nM for the first, less than 100 nM for the second.

CN1[C@H](C2CCCCC2)CN(c2ccccc2)c2cc(OCC34CC(C#N)(CO3)C4)c(-c3cc(F)c(C(=O)O)s3)cc2S1(=O)=O [Example 504] and CN1[C@H](C2CCCCC2)CN(c2ccccc2)c2cc(OCc3ccccc3C#N)c(-c3cc(F)c(C(=O)O)s3)cc2S1(=O)=O [Example 510] cannot be ordered by EC50: less than 100 nM for the first, less than 100 nM for the second.

CC(C)Oc1ccccc1COc1cc2c(cc1-c1cc(F)c(C(=O)O)s1)S(=O)(=O)N(C)[C@H](C1CCCCC1)CN2c1ccccc1 [Example 505] and CN1[C@H](C2CCCCC2)CN(c2ccccc2)c2cc(OCc3ccccc3)c(-c3cc(F)c(C(=O)O)s3)cc2S1(=O)=O [Example 508] cannot be ordered by EC50: less than 100 nM for the first, less than 100 nM for the second.

First: CN1[C@H](C2CCCCC2)CN(c2ccccc2)c2cc(OCc3ccc(OC(F)(F)F)cc3)c(-c3cc(F)c(C(=O)O)s3)cc2S1(=O)=O [Example 507]
Second: CN1[C@H](C2CCCCC2)CN(c2ccccc2)c2cc(OCc3cccc(OC(F)(F)F)c3)c(-c3cc(F)c(C(=O)O)s3)cc2S1(=O)=O [Example 511]
The EC50 of the first is lower: less than 100 nM for the first, 100 to 1000 nM for the second. The first is the more potent here.

CN1[C@H](C2CCCCC2)CN(c2ccccc2)c2cc(OCC3CN(C(=O)OC(C)(C)C)C3)c(-c3cc(F)c(C(=O)O)s3)cc2S1(=O)=O [Example 509] and COCCOc1cc2c(cc1-c1cc(NC(=O)OC(C)(C)C)c(C(=O)O)s1)S(=O)(=O)N(C)[C@H](C1CCCCC1)CN2c1ccccc1 [Example 515, (R)-3-((tert-butoxycarbonyl)amino)-5-(3-cyclohexyl-7-(2-methoxyethoxy)-2-methyl-1,1-dioxido-5-phenyl-2,3,4,5-tetrahydrobenzo[f][1,2,5]thiadiazepin-8-yl)thiophene-2-carboxylic acid] cannot be ordered by EC50: less than 100 nM for the first, less than 100 nM for the second.

COCCOc1cc2c(cc1-c1cc(NC(=O)OCC(C)C)c(C(=O)O)s1)S(=O)(=O)N(C)[C@H](C1CCCCC1)CN2c1ccccc1 [Example 516, (R)-5-(3-cyclohexyl-7-(2-methoxyethoxy)-2-methyl-1,1-dioxido-5-phenyl-2,3,4,5-tetrahydrobenzo[f][1,2,5]thiadiazepin-8-yl)-3-((isobutoxycarbonyl)amino)thiophene-2-carboxylic acid] and CCOC(=O)Nc1cc(-c2cc3c(cc2OCCOC)N(c2ccccc2)C[C@@H](C2CCCCC2)N(C)S3(=O)=O)sc1C(=O)O [Example 517] cannot be ordered by EC50: less than 100 nM for the first, less than 100 nM for the second.

COCCOc1cc2c(cc1-c1cc(NC(=O)OCCOC(C)C)c(C(=O)O)s1)S(=O)(=O)N(C)[C@H](C1CCCCC1)CN2c1ccccc1 [Example 518, (R)-5-(3-cyclohexyl-7-(2-methoxyethoxy)-2-methyl-1,1-dioxido-5-phenyl-2,3,4,5-tetrahydrobenzo[f][1,2,5]thiadiazepin-8-yl)-3-(((2-isopropoxyethoxy)carbonyl)amino)thiophene-2-carboxylic acid] and COCCOc1cc2c(cc1-c1cc(NC(=O)OCC3CC(F)(F)C3)c(C(=O)O)s1)S(=O)(=O)N(C)[C@H](C1CCCCC1)CN2c1ccccc1 [Example 519] cannot be ordered by EC50: less than 100 nM for the first, less than 100 nM for the second.

Compared with CCCC[C@@H]1CN(c2ccccc2)c2cc(N3CCCC3)c(-c3ccc(F)c(C(=O)O)c3)cc2S(=O)(=O)N1C [Example 520, (R)-5-(3-butyl-2-methyl-1,1-dioxido-5-phenyl-7-(pyrrolidin-1-yl)-2,3,4,5-tetrahydrobenzo[f][1,2,5]thiadiazepin-8-yl)-2-fluorobenzoic acid], CCCC[C@@H]1CN(c2ccccc2)c2cc(-n3cncn3)c(-c3ccc(F)c(C(=O)O)c3)cc2S(=O)(=O)N1C [Example 526] is lower in EC50: 100 to 1000 nM for the first, less than 100 nM for the second. The second is the more potent here.

Compared with CCCC[C@@H]1CN(c2ccccc2)c2cc(N3CCCC3)c(-c3cc(C(=O)O)n(C)n3)cc2S(=O)(=O)N1C [Example 521], CCCC[C@@H]1CN(c2ccccc2)c2cc(-n3nnnc3C)c(-c3ccc(F)c(C(=O)O)c3)cc2S(=O)(=O)N1C [Example 525] is higher in EC50: 100 to 1000 nM for the first, greater than 1000 nM for the second.

Compared with CCCC[C@@H]1CN(c2ccccc2)c2cc(Nc3ccccc3F)c(-c3ccc(F)c(C(=O)O)c3)cc2S(=O)(=O)N1C [Example 522], CCCC[C@@H]1CN(c2ccccc2)c2cc(-n3cnc4ccccc43)c(-c3ccc(F)c(C(=O)O)c3)cc2S(=O)(=O)N1C [Example 527] is higher in EC50: less than 100 nM for the first, 100 to 1000 nM for the second. The first is the more potent here.

First: CCCC[C@@H]1CN(c2ccccc2)c2cc(F)c(-c3ccc(N(C)C)c(C(=O)O)c3)cc2S(=O)(=O)N1C [Example 523]
Second: CCCC[C@@H]1CN(c2ccccc2)c2cc(N(C)C)c(-c3ccc(F)c(C(=O)O)c3)cc2S(=O)(=O)N1C [Example 524]
The EC50 of the first is higher: 100 to 1000 nM for the first, less than 100 nM for the second.

CCCCCNc1cc2c(cc1-c1ccc(F)c(C(=O)O)c1)S(=O)(=O)N(C)[C@H](C1CCCCC1)CN2c1ccccc1 [Example 528] and CN(C)c1cc2c(cc1-c1ccc(F)c(C(=O)O)c1)S(=O)(=O)N(C)[C@H](C1CCCCC1)CN2c1ccccc1 [Example 529] cannot be ordered by EC50: less than 100 nM for the first, less than 100 nM for the second.

First: CN1[C@H](C2CCCCC2)CN(c2ccccc2)c2cc(-n3ccccc3=O)c(-c3ccc(F)c(C(=O)O)c3)cc2S1(=O)=O [Example 530]
Second: CO[C@@H]1CCN(c2cc3c(cc2-c2ccc(F)c(C(=O)O)c2)S(=O)(=O)N(C)[C@H](C2CCCCC2)CN3c2ccccc2)C1 [Example 531]
The EC50 of the first is higher: greater than 1000 nM for the first, less than 100 nM for the second. The second is the more potent here.

First: CO[C@H]1CCN(c2cc3c(cc2-c2ccc(F)c(C(=O)O)c2)S(=O)(=O)N(C)[C@H](C2CCCCC2)CN3c2ccccc2)C1 [Example 532]
Second: CN1[C@H](C2CCCCC2)CN(c2ccccc2)c2cc(N3CC4(CCCC4)C3)c(-c3ccc(F)c(C(=O)O)c3)cc2S1(=O)=O [Example 533]
The EC50 of the first is lower: less than 100 nM for the first, 100 to 1000 nM for the second.
